Series [1] has as its system S. aureus. In words: In vitro antibacterial activity (MIC), S. aureus. The following applies: Staphylococcus aureus. It counts as cell-based, Staphylococcus Aureus. As for the experimental part: Strains: strain ATCC25923 is available from the American Type Culture Collection, and is used as a standard strain of Staphylococcus Aureus;
Liquid medium: MH bouillon culture medium, a product of BD Company, United States of American;
Tested Compounds: compounds 12a, 13 and 14 prepared according to the methods above, and Linezolid purchased from Pfizer.
(§1) The test strain was inoculated into the liquid medium and cultured at 37° C. for 16-18 h. The culture liquid and MH medium were put into two blank wells of a 96-well plate, respectively. Then, the absorptions thereof were measured by a Microplate reader. The difference between the absorption values of the culture liquid and MH medium is the adsorption of the bacteria. The concentration of the culture liquid can be calculated according to the formula of 1OD=50 million CFU/mL. The culture liquid was diluted with the MH bouillon culture medium to 5000 CFU/mL for further use.
(§2) Compounds 12a, 13 and 14 were dissolved in DMSO to 1 mg/mL, and then filtered with a 0.22 μm filter to obtain the compound solutions. And then they were gradually diluted to a desired concentration (10× final concentration) with the liquid medium, so as to obtain a series of dilutions. The final concentration grade of the dilutions of each tested compound consists of 14 concentrations, which includes: 0.03125 μg/mL, […], 0.125 μg/mL, 0.25 μg/mL, […], 1 μg/mL, 2 μg/mL, 4 μg/mL, 8 μg/mL, 16 μg/mL, 32 μg/mL, 64 μg/mL, 128 μg/mL and 256 μg/mL.
(§3) 10 μL of each of the compound dilutions above was added into a well of a 96-well plate. 90 μL of the culture liquid (5000 CFU/mL) was added into each of the wells, respectively, mixed with the dilutions to render the tested compound concentration to the final concentration. The resulted mixture was incubated at 37° C. for 16-18 h, and then the OD630 thereof was measured. A culture liquid free of the tested compounds is used as a blank control, and three parallel tests with the same concentration of each compound were performed. The minimum inhibitory concentration (MIC) of each compound on the standard strain of Staphylococcus Aureus and other test strains was determined. Specifically, among the culture liquid contained in the wells of the micro-plate, the first three lowest concentrations under which growth of the test strains could be observed were chose for further evaluation of the MIC. A culture liquid free of tested compounds was used as a blank control. Each of the culture liquids was homogenized independently, and then was diluted with a sterile saline. Each of the diluted culture liquids was plated onto a MH bouillon plate and incubated at 37° C. for 20 h in incubator. After the incubation, the number of the colonies on each plate was counted. As compared with the blank control group, the lowest concentration of each of the test compound groups, at which 80% reduction in the colony number of the strains was achieved, was recorded as the MIC.

Series [2] deals with S. pneumoniae. Nature of the series: In vitro antibacterial activity (MIC), S. pneumoniae. The series is classed as cell-based. The following applies: Streptococcus pneumoniae. How it is done:
as §1, §2, §3

For series [3], the system named is S. agalactiae. In words: In vitro antibacterial activity (MIC), S. agalactiae. Particulars: Streptococcus agalactiae. It counts as cell-based. As for the experimental part: as §1, §2, §3
Series [4] deals with E. faecalis. In words: In vitro antibacterial activity (MIC), E. faecalis. It counts as cell-based. The following applies: Enterococcus faecalis. How it is done: as §1, §2, §3
In series [5] the test system is HEK-293. Nature of the series: Cytotoxicity experiment (MTT), HEK-293. The series is classed as cell-based. Particulars: Homo sapiens, HEK293, 48 h, HEK-293 normal cells, read-out: Inhibition ratio. As for the experimental part:
(§4) (1) Inoculating cells: Experimental cells in the growth of logarithmic phase were collected and suspended. The cell concentration of the suspension was adjusted so that they could be inoculated into the wells of 96-well micro plate at a density between 10^3-10^4 cells per well (200 μl per well). (2) Culturing cells: The cells were cultured at normal conditions for 3 days and then exposed to 50 uM compounds for test. (3) Coloring reaction: At 24 h, 48 h and 72 h after the cells being exposed to the compounds for test, 200 μl culture medium containing 20 μl MTT solution (5 mg/ml) was added into each well, and the well was further incubated at 37° C. for 2 hours to terminate the incubation. After the incubation, the supernatants were removed from the wells. In the event there were suspended cells in the wells, centrifugation should be performed before removal of supernatant from the wells. After the removal, 150 μl DMSO was added to each well and mixed thoroughly by agitation for 10 mins to fully dissolve crystals. (4) Ascertainment of colorimetry: The absorbance value at 490 nm of each well was determined by Enzyme-linked immunosorbent Monitor. The growth curve of the experimental cells was plotted by taking time as x-coordinate and absorbance value as y-coordinate. In addition, an inhibition ratio could be calculated in accordance with the following formula: Inhibition ratio=(absorbance value of control group-absorbance value of administering group)/absorbance value of control group×100%.

Series [6] has as its system L-02. Nature of the series: Cytotoxicity experiment (MTT), L-02. It counts as cell-based. The following applies: Homo sapiens, L02, 48 h, L-02 normal cells, read-out: Inhibition ratio. How it is done: as §4
Where [7] appears, read: S. aureus (12 strains), read-out: MIC.
Setting [8] is: S. pneumoniae (10 strains), read-out: MIC.
Where [9] appears, read: S. agalactiae (5 strains), read-out: MIC.
The mark [10] stands for this setting: E. faecalis (7 strains), read-out: MIC.

Molecules are shown by their SMILES. Values after ≈ are worked out from the molar mass of the structure shown. Like-named read-outs stand apart in the source and are kept apart here.

The values that follow come from patent US8946436B2, “Oxazolidinone compounds and their uses in preparation of antibiotics” (Sichuan Gooddoctor Pharmaceutical Group Co., Ltd., priority 2011, dated 2015).

Usually MIC stands for the smallest concentration in the dilution series that meets the test's criterion for growth inhibition. For orientation: melting point means the temperature of the solid-liquid transition.

For `CC(=O)NC[C@H]1CN(c2ccc(-n3nccc3-c3ccc(F)cc3)c(F)c2)C(=O)O1` [Compound 14i, (S)-N-((3-(3-fluoro-4-(5-(4-fluorophenyl)-1H-pyrazol-1-yl)phenyl)-2-oxooxazolidin-5-yl)methyl)acetamide], the melting point lay in the range of 111.4 to 112.9 °C. Besides, the MIC in series [1] (setting [7]) lay in the range of 1 to 8 µg/mL (≈ 2.42 to 19.4 µM). Further, in series [2] (setting [8]), the MIC lay within 0.5 to 8 µg/mL (≈ 1.21 to 19.4 µM). The MIC in series [3] (setting [9]) is 0.5 to 4 µg/mL (≈ 1.21 to 9.7 µM). Also, in series [4] (setting [10]), the MIC fell in the range of 1 to 8 µg/mL (≈ 2.42 to 19.4 µM). Besides, the cytotoxicity at 50 µM in series [5] was found to be 5.5%. Besides, the cytotoxicity at 50 µM in series [6] stood at 9%.
For `COc1ccc(-c2ccnn2-c2ccc(N3C[C@H](CNC(C)=O)OC3=O)cc2F)cc1OC` [Compound 14j, (S)-N-((3-(3-fluoro-4-(5-(3,4-dimethoxyphenyl)-1H-pyrazol-1-yl)phenyl)-2-oxooxazolidin-5-yl)methyl) acetamide], the melting point lay within 153.7 to 156.1 °C. The MIC in series [1] is 0.25 to 2 µg/mL (≈ 0.55 to 4.4 µM). Moreover, in series [2], the MIC lay within 0.25 to 1 µg/mL (≈ 0.55 to 2.2 µM). Moreover, the MIC in series [3] is 0.25 to 2 µg/mL (≈ 0.55 to 4.4 µM). Moreover, the MIC in series [4] was in the range of 0.5 to 2 µg/mL (≈ 1.1 to 4.4 µM). In addition, the cytotoxicity at 50 µM in series [5] is 7%. Further, the cytotoxicity at 50 µM in series [6] is 12%.
For `CC(=O)NC[C@H]1CN(c2ccc(-n3cc(-c4ccc(C(=O)O)cn4)cn3)c(F)c2)C(=O)O1` [Compound 13e, (S)-N-((3-(3-fluoro-4-(4-(5-carboxyl-pyridin-2-yl)-1H-pyrazol-1-yl)phenyl)-2-oxooxazolidin-5-yl)methyl) acetamide], the melting point was in the range of 279.6 to 280.2 °C. The MIC in series [1] (setting [7]) fell in the range of 1 to 8 µg/mL (≈ 2.28 to 18.2 µM). The MIC in series [2] (setting [8]) was 0.5 to 8 µg/mL (≈ 1.14 to 18.2 µM). The MIC in series [3] (setting [9]) was in the range of 0.5 to 4 µg/mL (≈ 1.14 to 9.1 µM). For the same compound, in series [4] (setting [10]), the MIC was in the range of 1 to 8 µg/mL (≈ 2.28 to 18.2 µM). The cytotoxicity at 50 µM in series [5] amounted to 36.3%. Moreover, the cytotoxicity at 50 µM in series [6] was 38%.
For the compound `CC(=O)NC[C@H]1CN(c2ccc(-n3nccc3-c3ccccn3)c(F)c2)C(=O)O1` [Compound 14e, (S)-N-((3-(3-fluoro-4-(5-(pyridin-2-yl)-1H-pyrazol-1-yl)phenyl)-2-oxooxazolidin-5-yl)methyl)acetamide], the melting point fell in the range of 79.9 to 82.1 °C. Further, the MIC in series [1] (setting [7]) lay within 0.5 to 16 µg/mL (≈ 1.26 to 40.5 µM). The MIC in series [2] (setting [8]) was 0.125 to 16 µg/mL (≈ 0.316 to 40.5 µM). Besides, the MIC in series [3] (setting [9]) fell in the range of 0.25 to 16 µg/mL (≈ 0.632 to 40.5 µM). Moreover, in series [4] (setting [10]), the MIC lay in the range of 0.25 to 16 µg/mL (≈ 0.632 to 40.5 µM). The cytotoxicity at 50 µM in series [5] worked out at 47%. For the same compound, the cytotoxicity at 50 µM in series [6] is 39%.
